Structures are written as SMILES.

Data on seven molecules can be found in US10577362B2, “Substituted 2, 4-diamino-quinoline derivatives for use in the treatment of proliferative diseases” (GENOSCIENCE PHARMA, priority 2016, dated 2020).

Assay [1] has as its system HepG2 (hepatocellular carcinoma) cell line. The assay can be described thus: CellTiter-Glo luminescent cell viability assay, HepG2. It is filed as cell-based, human. The settings on record: Homo sapiens; for viability at 4 µM / viability at 10 µM: HepG2, HepG, 72 h; for viability at 4 µM: compound at 4 μM; for viability at 10 µM: compound at 10 μM; for EC50: HepG2 cell line, 72 h incubation, CellTiter-Glo, read-out: EC50, growth inhibition of HepG2. In short, it runs like this: (§1)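 Each line grew in its own medium (DMEM low glucose for HepG2, DMEM for Huh7 and PANC-1, MEM alpha for MOLM-14) plus 10% FBS. Three-day compound treatment preceded luminescence reading; EC50 reflects 50% loss of diluent-control signal.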

For assay [2], the system named is Huh7 (hepatocellular carcinoma) cell line. The assay can be described thus: CellTiter-Glo luminescent cell viability assay, Huh7. The format is cell-based, human. To be noted: Homo sapiens, Huh-7; for viability at 4 µM: Huh7, compound at 4 μM; for viability at 4 µM / viability at 10 µM: 72 h; for viability at 10 µM: Huh7, compound at 10 μM; for EC50: Huh7 cell line, 72 h incubation, CellTiter-Glo, read-out: EC50, growth inhibition of Huh7. The procedure, abridged:
as §1

In assay [3] the test system is 786-O (renal adenocarcinoma) cell line. The assay can be described thus: CellTiter-Glo luminescent cell viability assay, 786-O. It is filed as cell-based, human. The settings on record: Homo sapiens, 786-0; for EC50: 786-O cell line, 72 h incubation, CellTiter-Glo, read-out: EC50, growth inhibition of 786-O; for viability at 4 µM / viability at 10 µM: 786-O, 72 h; for viability at 4 µM: compound at 4 μM; for viability at 10 µM: compound at 10 μM. The procedure, abridged: (§2)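 Adherent cells grow overnight, or suspension cells are seeded 1 h ahead; compound dilutions are then added and plates incubated 72 h at 37 °C. After 30 min at room temperature, CellTiter-Glo reagent is added and luminescence recorded. EC50 derives from signal relative to diluent control.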

In assay [4] the test system is PANC-1 (prancreatic carcinoma) cell line. The assay can be described thus: CellTiter-Glo luminescent cell viability assay, PANC-1. It is filed as cell-based. To be noted: Homo sapiens; for viability at 4 µM: PANC-1, 4 μM; for viability at 4 µM / viability at 10 µM: 72 h, % of signal of diluent-treated cultures; for viability at 10 µM: PANC-1, 10 μM; for EC50: PANC-1 cell line, 72 h incubation, CellTiter-Glo, read-out: EC50 (growth inhibition assay of PANC-1 cell line). The procedure: All cell lines were maintained in medium containing 1% penicillin-streptomycin (Dutscher, P06-07100) and 10% Fetal Bovine Serum (Hyclone Dutscher, RZK35922) cultured at 37° C. with 5% CO2. HepG2 (hepatocellular carcinoma), cell line was cultured in Dulbecco's modified Eagle's medium low glucose (Gibco, 21885025), Huh7 (hepatocellular carcinoma), HCT-116 (colorectal carcinoma), PANC-1 (prancreatic carcinoma) and A375 (malignant melanoma) cell lines were cultured in Dulbecco's modified Eagle's medium (Dutscher, L0103). MOLM-14 (acute myeloid leukemia) cell line was maintained in MEM alpha medium (Gibco, 22561-021). 786-0 (renal adenocarcinoma) cell lines were maintained in RPMI 1640 medium (Dutscher, L0498).
Cell viability was measured using the CellTiter-Glo® luminescent cell viability assay as described by the manufacturer (Promega, Ref G7571) using an Infinite F200Pro luminometer (Tecan). Briefly, for adherent cells, cells were plated onto 96-well plates (white with clear bottom) in 90 μL of media per well and were allowed to grow overnight before the assay. For cells growing in suspension, cells were plated onto 96-well plates 1 h before the assay.
Compounds were resuspended in H2O or DMSO and added at different concentrations to each well, and cell cultures were incubated for 72 h. Each diluent (H2O or DMSO) were used as a control, and all compounds were tested in a constant percentage of H2O or DMSO. On the day of the reading, plates are equilibrated 30 min at room temperature before the addition of 100 μL of CellTiter-Glo® and luminescence was measured using an Infinite F200Pro (Tecan). % cell viability were expressed as a percentage of the signal obtained for cell cultures treated with diluent. EC50 values were determined as the dose of compound required to reduce luminescent values to 50% of the signal obtained for cell cultures treated with diluent. The experimental data were analyzed using a computer program, Graphpad Prism v5 (GraphPad Software, Inc. La Jolla, Calif.). All points were at least done in duplicate.

In assay [5] the test system is A375 (malignant melanoma) cell line. In words: CellTiter-Glo luminescent cell viability assay, A375. It is filed as cell-based, human. The settings on record: Homo sapiens, A-375; for viability at 4 µM: A375, compound at 4 μM; for viability at 4 µM / viability at 10 µM: 72 h; for viability at 10 µM: A375, compound at 10 μM; for EC50: A375 cell line, 72 h incubation, CellTiter-Glo, read-out: EC50, growth inhibition of A375. The procedure, abridged:
as §2

In assay [6] the test system is HCT-116 (colorectal carcinoma) cell line. In words: CellTiter-Glo luminescent cell viability assay, HCT-116. The format is cell-based, human. To be noted: Homo sapiens; for viability at 4 µM: HCT-116, compound at 4 μM; for viability at 4 µM / viability at 10 µM: 72 h; for viability at 10 µM: HCT-116, compound at 10 μM; for EC50: HCT-116 cell line, 72 h incubation, CellTiter-Glo, read-out: EC50, growth inhibition of HCT-116. In short, it runs like this:
as §2

For assay [7], the system named is MOLM-14 (acute myeloid leukemia) cell line. In words: CellTiter-Glo luminescent cell viability assay, MOLM-14. The format is cell-based, human. To be noted: Homo sapiens; for viability at 4 µM: MOLM-14, compound at 4 μM; for viability at 4 µM / viability at 10 µM: 72 h; for viability at 10 µM: MOLM-14, compound at 10 μM; for EC50: MOLM-14 cell line, 72 h incubation, CellTiter-Glo, read-out: EC50, growth inhibition of MOLM-14. The procedure, abridged:
as §1

As for `Cc1cccc2c(N3CCC(NC(C)(C)C)CC3)c(C#N)c(NCc3ccc(Cl)cc3)nc12` [Compound 414CN, 2-(4-chlorobenzylamino)-3-cyano-4-[4-(tert-butylamino)piperidin-1-yl]-8-methylquinoline], the viability at 4 µM came to 9% in assay [1]; 79.8% in assay [2]; 0.7% in assay [3]; 91% in assay [4]; 0.3% in assay [5]; 0.3% in assay [6]. In assay [7], the viability at 4 µM amounted to 0.5%. Besides, the viability at 10 µM in assay [1] turned out to be 0.5%; in assay [2] it was 0.5%; in assay [3], 0.3%; in assay [4] it was 0.8%; in assay [5] it was 0.4%; in assay [6], 0.3%. For the same molecule, the viability at 10 µM in assay [7] is 0.3%. For the same molecule, the EC50 in assay [1] was in the range of 0.5 to 5 µM; in assay [2] it was 0.5 to 5 µM; in assay [3] it was 0.5 to 5 µM; in assay [4] it was 5 to 10 µM; in assay [5], 0.5 to 5 µM; in assay [6], 0.5 to 5 µM. In assay [7], the EC50 lay in the range of 0.5 to 5 µM.

As to `N#Cc1c(NCc2ccc(Cl)cc2)nc2ccccc2c1N1CCCC(N2CCCC2)C1` (centres unmarked) [Compound 176CN, 2-(4-chlorobenzylamino)-3-cyano-4-[3-(pyrrolidin-1-yl)piperidin-1-yl]quinoline], the viability at 4 µM turned out to be 93% in assay [1]; 96.4% in assay [2]; 89.8% in assay [3]; 93.2% in assay [4]; 114% in assay [5]; 84.3% in assay [6]. The viability at 4 µM in assay [7] is 95.6%. For the same molecule, the viability at 10 µM in assay [1] was determined as 60.2%; in assay [2], 64.7%; in assay [3], 39.3%; in assay [4], 70.6%; in assay [5] it was 65.4%; in assay [6], 42.7%. Moreover, the viability at 10 µM in assay [7] was 75.2%.

As for `CC(C)(C)OC(=O)NC1CCCN(c2c(C#N)c(NCc3ccc(Cl)cc3)nc3ccccc23)C1` (centres unmarked) [Compound 154CN], the viability at 4 µM in assay [1] amounted to 105%; in assay [2], 101%; in assay [3] it was 94.1%; in assay [4], 107%; in assay [5] it was 96.2%; in assay [6], 98.8%. The viability at 4 µM in assay [7] worked out at 112%. For the same molecule, the viability at 10 µM in assay [1] worked out at 97.5%; in assay [2], 93.5%; in assay [3], 82.3%; in assay [4], 99%; in assay [5] it was 88.5%; in assay [6], 87.2%. The viability at 10 µM in assay [7] stood at 113%.

On to `CC(C)(C)OC(=O)NC1CCN(c2c(C#N)c(NCc3ccc(Cl)cc3)nc3ccccc23)CC1` [Compound 182CN, 2-(4-chlorobenzylamino)-3-cyano-4-{4-[(tert-butyloxycarbonyl)amino]piperidin-1-yl}quinoline], for which the viability at 4 µM in assay [1] amounted to 91.6%; in assay [2] it was 86%; in assay [3] it was 89.9%; in assay [4], 100%; in assay [5] it was 94.4%; in assay [6], 66.9%. Further, the viability at 4 µM in assay [7] amounted to 86.9%. For the same molecule, the viability at 10 µM is 89.8% in assay [1]; 76.2% in assay [2]; 83.9% in assay [3]; 95.3% in assay [4]; 90.2% in assay [5]; 47.7% in assay [6]. Moreover, in assay [7], the viability at 10 µM was 48.7%.

For `CC(C)(C)NC1CCN(c2c(F)c(NCc3ccc(F)cc3)nc3ccccc23)CC1` [Compound 240F, 2-(4-fluorobenzylamino)-3-fluoro-4-[4-(tert-butylamino)piperidin-1-yl]quinoline], the viability at 4 µM in assay [1] is 46.1%; in assay [2] it was 70.5%; in assay [3], 94.7%; in assay [4], 96.5%; in assay [5] it was 73.6%; in assay [6], 49.6%. Further, the viability at 4 µM in assay [7] is 83.4%. For the same molecule, the viability at 10 µM was determined as 0.1% in assay [1]; 2.5% in assay [2]; 28.7% in assay [3]; 59.5% in assay [4]; 0.2% in assay [5]; 0.2% in assay [6]. In addition, the viability at 10 µM in assay [7] is 50.8%. For the same molecule, the EC50 in assay [1], in assay [2], in assay [3], in assay [4], in assay [5] and in assay [6] was 5 to 10 µM throughout. In assay [7], the EC50 lay in the range of 5 to 10 µM.

In the case of `CC(C)(C)NC1CCN(c2c(C#N)c(NCc3ccncc3)nc3ccccc23)CC1` [Compound 3306CN, 2-[(pyridin-4-ylmethyl)amino]-3-cyano-4-[4-(tert-butylamino)piperidin-1-yl]quinoline], the viability at 4 µM in assay [1] stood at 83.4%; in assay [2], 91.7%; in assay [3], 84%; in assay [4], 101%; in assay [5] it was 79.2%; in assay [6] it was 83.9%. The viability at 4 µM in assay [7] worked out at 97.6%. The viability at 10 µM in assay [1] was found to be 71.6%; in assay [2], 82.4%; in assay [3] it was 71.7%; in assay [4], 93.3%; in assay [5] it was 77.4%; in assay [6], 72.6%. The viability at 10 µM in assay [7] worked out at 94.5%.

As to `CC(C)(C)NC1CCN(c2c(C#N)c(Nc3ccc(F)cc3)nc3ccccc23)CC1` [Compound 3260CN, 2-(4-fluorophenylamino)-3-cyano-4-[4-(tert-butylamino)piperidin-1-yl]quinoline], the viability at 4 µM in assay [1] is 49.1%; in assay [2] it was 50.7%; in assay [3], 17.5%; in assay [4], 84.1%; in assay [5] it was 2.2%; in assay [6], 1.2%. The viability at 4 µM in assay [7] amounted to 86.7%. Further, the viability at 10 µM is 0.4% in assay [1]; 0.7% in assay [2]; 0.3% in assay [3]; 39.1% in assay [4]; 0.4% in assay [5]; 0.3% in assay [6]. The viability at 10 µM in assay [7] was 0.9%. The EC50 was in the range of 0.5 to 5 µM in assay [1]; 5 to 10 µM in assay [2]; 0.5 to 5 µM in assay [3]; 5 to 10 µM in assay [4]; 0.5 to 5 µM in assay [5]; 0.5 to 5 µM in assay [6]. Besides, in assay [7], the EC50 fell in the range of 5 to 10 µM.
